Among the data in paper PMC6530601, “Rapid and Scalable Plant-Based Production of a Potent Plasmin Inhibitor Peptide” (Frontiers in Plant Science, 2019) are Ki and Km values, retold here.

Bridge positions count the residues as written; N and C are the ends. Peptide text beside a SMILES is read from it.

The target of experiment [1] is T1, native human plasmin (Homo sapiens, UniProt P00747).
T1 construct: incubated with 1 nM native human plasmin (Sigma-Aldrich); purchased Sigma-Aldrich
The experiment is described as follows: Plasmin inhibitory assay (chromogenic peptide substrate). The conditions noted are these: plant-derived peptide; 1 nM native human plasmin, 30 min pre-incubation, 0.1 M Tris-HCl, pH 8.0, 0.1 M NaCl, 0.005% Triton X-100; 100 μM Acetyl-Arg-Met(sulphone)-Tyr-Arg-pNA, 405 nm over 7 min; Morrison equation; n = 3 independent assays; read-out: inhibition constant (Ki). It counts as biochemical. The procedure:
A serial dilution of plant-derived [T4Y,I7R]SFTI-1 was incubated with 1 nM native human plasmin (Sigma-Aldrich) for 30 min in assay buffer (0.1 M Tris-HCl, pH 8.0, 0.1 M NaCl, and 0.005% Triton X-100) in low binding 96-well plates (Corning). […] The inhibition constant (Ki) was determined from three independent assays by the Morrison equation and non-linear regression using GraphPad Prism 6.

The target in experiment [2] is T1, native human plasmin. To be noted: substrate of plasmin assay; determination not described, no reference given; cited from earlier work. The protocol:
A serial dilution of plant-derived [T4Y,I7R]SFTI-1 was incubated with 1 nM native human plasmin (Sigma-Aldrich) for 30 min in assay buffer (0.1 M Tris-HCl, pH 8.0, 0.1 M NaCl, and 0.005% Triton X-100) in low binding 96-well plates (Corning). […] The inhibition constant (Ki) was determined from three independent assays by the Morrison equation and non-lin ...

T1 sequence (P00747 581-810 limits assumed): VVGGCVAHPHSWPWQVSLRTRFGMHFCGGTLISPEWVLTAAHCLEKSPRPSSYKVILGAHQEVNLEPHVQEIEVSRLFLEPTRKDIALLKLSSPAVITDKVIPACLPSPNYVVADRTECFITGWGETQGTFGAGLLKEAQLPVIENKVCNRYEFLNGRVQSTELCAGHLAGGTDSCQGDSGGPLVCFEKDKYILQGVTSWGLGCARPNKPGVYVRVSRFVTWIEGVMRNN
T1 sequence (P00747 97-580 partner limits assumed): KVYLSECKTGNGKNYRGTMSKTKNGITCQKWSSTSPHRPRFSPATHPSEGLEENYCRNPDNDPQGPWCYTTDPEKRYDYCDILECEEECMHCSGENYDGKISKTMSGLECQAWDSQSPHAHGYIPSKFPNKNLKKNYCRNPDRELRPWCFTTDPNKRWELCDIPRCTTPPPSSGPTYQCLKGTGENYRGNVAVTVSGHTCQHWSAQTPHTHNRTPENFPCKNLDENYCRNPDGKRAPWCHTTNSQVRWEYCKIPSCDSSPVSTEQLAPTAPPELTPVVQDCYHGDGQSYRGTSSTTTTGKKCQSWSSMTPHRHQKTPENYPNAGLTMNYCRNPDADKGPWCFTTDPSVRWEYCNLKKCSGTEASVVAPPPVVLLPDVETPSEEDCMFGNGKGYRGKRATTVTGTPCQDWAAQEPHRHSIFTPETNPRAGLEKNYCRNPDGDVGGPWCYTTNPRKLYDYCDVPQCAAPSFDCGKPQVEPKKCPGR

For `CC[C@H](C)[C@@H]1NC(=O)[C@@H]2CCCN2C(=O)[C@@H]2CCCN2C(=O)[C@H](CCCNC(=N)N)NC(=O)[C@H](CO)NC(=O)[C@H](CCCCN)NC(=O)[C@H](Cc2ccc(O)cc2)NC(=O)[C@@H]2CSSC[C@H](NC1=O)C(=O)N[C@@H](Cc1ccccc1)C(=O)N1CCC[C@H]1C(=O)N[C@@H](CC(=O)O)C(=O)NCC(=O)N[C@@H](CCCNC(=N)N)C(=O)N2` [[T4Y,I7R]SFTI-1] (cyclo(CFPDGRCYKSRPPI); disulfide 1-7), the Ki in experiment [1] is 0.025 ± 0.004 nM.
“Acetyl-Arg-Met(sulphone)-Tyr-Arg-pNA [colorimetric peptide substrate of plasmin]”: the Km in experiment [2] is 23.5 µM.

The term Ki denotes the dissociation constant of the complex between target and ligand, obtained from inhibition or displacement. As usually defined, the Km is the substrate concentration at which the rate is half of its maximum.
